The record followed here is patent US4539410A, “N-Substituted-2-(1-imidazolyl)indoles” (priority 1983, dated 1985).

The structures appear in SMILES notation.

The subject of test [1] is thromboxane B2 plasma level. The experiment in a line: in vivo reduction of plasma thromboxane B2 in rats after ionophore A23187. The following applies: oral dose as low as 0.20 mg/kg. The procedure:
(§1) The inhibition of the synthesis and the reduction of plasma levels of thromboxane is determined in vivo on administration to rats in the following manner (as adapted from the procedures described by Tai et al. in Anal. Biochem. 87:343, 1978 and by Salmon in Prostaglandins 15:383, 1978):
(§2) Rats are dosed with vehicle or test drug and injected intravenously with inophore A23187 (0.5 mg/kg) two hours later. Blood is collected for analysis 2 minutes after the ionophore injection. A single aliquot of each plasma sample is assayed for thromboxane B2 and another aliquot for 6-keto-PGF1 α, the stable metabolites of thromboxane A2 and prostacyclin (PGI2) respectively, by radioimmunoassay.

In test [2] the test system is prostacyclin (PGI2) plasma level. Nature of the test: in vivo plasma prostacyclin (6-keto-PGF1 α) in rats after ionophore A23187. The following applies: oral, at 0.20 mg/kg or a higher dose. The procedure:
as §1, §2

The target in test [3] is T1, thromboxane synthetase from lysed human platelets (Homo sapiens, UniProt P24557).
T1 construct: crude microsomal preparation of thromboxane synthetase from lysed human platelets; from tissue; host or cells: human platelets (lysed), crude microsomal preparation
T1 sequence (P24557 1-533): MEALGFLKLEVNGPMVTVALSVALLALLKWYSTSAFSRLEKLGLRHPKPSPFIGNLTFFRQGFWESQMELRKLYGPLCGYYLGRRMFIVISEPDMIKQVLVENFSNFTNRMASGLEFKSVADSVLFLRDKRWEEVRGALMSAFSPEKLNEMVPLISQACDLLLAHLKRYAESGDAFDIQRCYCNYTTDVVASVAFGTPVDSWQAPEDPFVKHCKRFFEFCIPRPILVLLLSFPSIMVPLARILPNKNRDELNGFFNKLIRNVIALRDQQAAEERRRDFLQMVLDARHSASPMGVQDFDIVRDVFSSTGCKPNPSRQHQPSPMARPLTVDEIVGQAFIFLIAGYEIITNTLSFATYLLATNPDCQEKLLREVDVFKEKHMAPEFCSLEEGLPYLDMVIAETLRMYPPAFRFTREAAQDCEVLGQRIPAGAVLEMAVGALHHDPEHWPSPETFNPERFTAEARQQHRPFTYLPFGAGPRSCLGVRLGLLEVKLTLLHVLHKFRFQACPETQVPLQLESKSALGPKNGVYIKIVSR
The experiment in a line: in vitro inhibition of thromboxane synthetase (14C-arachidonic acid, TxB2/PGF2 α+β ratio). The following applies: concentration at which ratio TxB2/PGF2 α+β is reduced to 50% of control; 30 minutes incubation. It is filed as biochemical. As to the method: Res. Comm. 74, 1432 (1977); the testing procedure is as follows:
^14 C-Arachidonic acid is incubated with an enzyme mixture preparation consisting of solubilized and partially purified prostaglandin cyclo-oxygenase from sheep seminal vesicles and a crude microsomal preparation of thromboxane synthetase from lysed human platelets. The test compound (dissolved in buffer, or if necessary, in a small amount of ethanol) is added to the incubation medium. At the end of the incubation period (30 minutes), Prostaglandin E2 (PGE2) is reduced to a mixture of Prostaglandin F2 α and F2 β (PGF2 α+β) by addition of sodium borohydride. The radioactive products and excess substrate are extracted into ethyl acetate; the extract is evaporated to dryness; the residue is dissolved in acetone, spotted on thin-layer plates and chromatographed in the solvent system toluene:acetone:glacial acetic acid (100 volumes:100 volumes:3 volumes). The radioactive zones are located; those corresponding to Thromboxane B2 (T×B2) and PGF2 α+β are transferred to liquid scintillation vials and counted. The ratio of counts for T×B2 /PGF2 α+β is calculated for each concentration of test compound and IC50 values are determined graphically as the concentration of test compound at which the ratio of T×B2 /PGF2 α+β is reduced to 50% of the control value.

Consider `Cc1c(-n2ccnc2)n(CCCCCC(=O)O)c2ccccc12.Cl` [Example 3, 1-(5-carboxypentyl)-2-(1-imidazolyl)-3-methylindole hydrochloride], for which the “decrease of the plasma concentration of thromboxane B2” value in test [1] is “over 50%”. In addition, the “plasma level of prostacyclin” value in test [2] is “increase in the plasma level of prostacyclin occurs”. In addition, in test [3], the IC50 was found to be 2.3 nM.

As a reminder, the IC50 is the concentration at which inhibition is half-maximal.
